# Earlier results as cited in patent publication US20090004290A1, “RED YEAST RICE COMPOUND FOR CANCER CHEMOPREVENTION” (priority 2007, published 2009).
# How the values were obtained:
# [1] = test system: lung cancer
# [2] = test system: total, breast, colorectal, or other site-specific cancers; conditions: 100 mg alternate day, average 10 years of treatment, women
# [3] = test system: lung cancer; conditions: interim analysis of over 3200 participants
# [4] = test system: lung cancer; conditions: secondary endpoint; follow up of over 1300 participants; selenium supplementation
smiles,measurement,setting,value
Cc1c(C)c2c(c(C)c1O)CC[C@@](C)(CCC[C@H](C)CCC[C@H](C)CCCC(C)C)O2 [Alpha-tocopherol],mortality due to hemorrhagic stroke,[1]; participants that received Alpha-tocopherol,higher mortality
same,decrease incidence of lung cancer,[1]; participants with highest blood levels vs quartile with lowest levels,19%
"CC(=O)Oc1ccccc1C(=O)O [aspirin, acetylsalicylic acid]","risk of total, breast, colorectal, or other site-specific cancers",[2],does not lower risk
"[Cu] [copper, Copper]",trend of lung cancer with supplementation / dietary intake,[3],protective trend
"[Se] [selenium, Selenium]",hazard ratio (lung cancer),[4],0.56
same,trend of lung cancer with supplementation / dietary intake,[3],significant inverse trend
"[Zn] [zinc, Zinc]",trend of lung cancer with supplementation / dietary intake,[3],significant chemoprotective trend
